# From ChEMBL document CHEMBL1201862, “PubChem BioAssay data set” (2004)
#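 Cultured in 96-well plates, cells were exposed to test compound for 48 hours across five concentrations. At the GI50, growth is halved.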 Calls of active or inactive are those of the source. Rule as the data show it: active = GI50 up to about 1.1 µM and inactive = higher.
# How the values were obtained:
# Test in all cases: NCI tumour cell line growth inhibition, 48 h
# K562 = tested on: K562
# SK-OV-3 = tested on: SK-OV-3
# SK-MEL-5 = tested on: SK-MEL-5
# UACC-257 = tested on: UACC-257
# SW-620 = tested on: SW-620
# SF-539 = tested on: SF-539
# T47D = tested on: T47D
# HT-29 = tested on: HT-29
# IGROV-1 = tested on: IGROV-1
# SF-268 = tested on: SF-268
# SNB-19 = tested on: SNB-19
# BT-549 = tested on: BT-549
# NCI-H226 = tested on: NCI-H226
# NCI-H23 = tested on: NCI-H23
# MDA-N = tested on: MDA-N
# UO-31 = tested on: UO-31
# MCF7 = tested on: MCF7
# COLO 205 = tested on: COLO 205
# PC-3 = tested on: PC-3
# NCI-H522 = tested on: NCI-H522
# SN12C = tested on: SN12C
# RPMI-8226 = tested on: RPMI-8226
# UACC-62 = tested on: UACC-62
# SNB-75 = tested on: SNB-75
# OVCAR-8 = tested on: OVCAR-8
# DU-145 = tested on: DU-145
# KM12 = tested on: KM12
# MDA-MB-231 = tested on: MDA-MB-231
# CCRF-CEM = tested on: CCRF-CEM
# M14 = tested on: M14
# NCI/ADR-RES = tested on: NCI/ADR-RES
# HCC 2998 = tested on: HCC 2998
# MDA-MB-435 = tested on: MDA-MB-435
# LOX IMVI = tested on: LOX IMVI
# OVCAR-5 = tested on: OVCAR-5
# EKVX = tested on: EKVX
# MOLT-4 = tested on: MOLT-4
# OVCAR-3 = tested on: OVCAR-3
# SK-MEL-2 = tested on: SK-MEL-2
# ACHN = tested on: ACHN
# NCI-H460 = tested on: NCI-H460
# CAKI-1 = tested on: CAKI-1
# HOP-62 = tested on: HOP-62
# Hs-578T = tested on: Hs-578T
# SF-295 = tested on: SF-295
# HCT-15 = tested on: HCT-15
# SK-MEL-28 = tested on: SK-MEL-28
# 786-0 = tested on: 786-0
# SR = tested on: SR
# RXF 393 = tested on: RXF 393
# HCT-116 = tested on: HCT-116
# OVCAR-4 = tested on: OVCAR-4
# TK-10 = tested on: TK-10
# A549 = tested on: A549
# U-251 = tested on: U-251
# HL-60 = tested on: HL-60
# HOP-92 = tested on: HOP-92
structure (smiles),measurement,setting,value
O=C1Oc2ccccc2C(=O)/C1=C/NC(=S)NCCc1ccccc1,GI50,K562,> 100 µM (inactive)
same,GI50,SK-OV-3,33.6 µM (inactive)
same,GI50,SK-MEL-5,45.7 µM (inactive)
same,GI50,UACC-257,62.1 µM (inactive)
same,GI50,SW-620,42.6 µM (inactive)
same,GI50,SF-539,31.2 µM (inactive)
same,GI50,T47D,35.1 µM (inactive)
same,GI50,HT-29,68.1 µM (inactive)
same,GI50,IGROV-1,27 µM (inactive)
same,GI50,SF-268,77.1 µM (inactive)
same,GI50,SNB-19,37.7 µM (inactive)
same,GI50,BT-549,20.2 µM (inactive)
same,GI50,NCI-H226,> 100 µM (inactive)
same,GI50,NCI-H23,33.1 µM (inactive)
same,GI50,MDA-N,32.8 µM (inactive)
same,GI50,UO-31,17.1 µM (inactive)
same,GI50,MCF7,56.1 µM (inactive)
same,GI50,COLO 205,48.4 µM (inactive)
same,GI50,PC-3,39.8 µM (inactive)
same,GI50,NCI-H522,23.3 µM (inactive)
same,GI50,SN12C,40 µM (inactive)
same,GI50,RPMI-8226,35.2 µM (inactive)
same,GI50,UACC-62,26.9 µM (inactive)
same,GI50,SNB-75,22.7 µM (inactive)
same,GI50,OVCAR-8,29.2 µM (inactive)
same,GI50,DU-145,23.4 µM (inactive)
same,GI50,KM12,37.2 µM (inactive)
same,GI50,MDA-MB-231,37.8 µM (inactive)
same,GI50,CCRF-CEM,27.9 µM (inactive)
same,GI50,M14,55 µM (inactive)
same,GI50,NCI/ADR-RES,38.7 µM (inactive)
same,GI50,HCC 2998,43.2 µM (inactive)
same,GI50,MDA-MB-435,48.6 µM (inactive)
same,GI50,LOX IMVI,42.9 µM (inactive)
same,GI50,OVCAR-5,68.4 µM (inactive)
same,GI50,EKVX,63.7 µM (inactive)
same,GI50,MOLT-4,57.1 µM (inactive)
same,GI50,OVCAR-3,67.1 µM (inactive)
same,GI50,SK-MEL-2,19.4 µM (inactive)
same,GI50,ACHN,19.2 µM (inactive)
same,GI50,NCI-H460,23.8 µM (inactive)
same,GI50,CAKI-1,35.3 µM (inactive)
same,GI50,HOP-62,51.8 µM (inactive)
same,GI50,Hs-578T,36.6 µM (inactive)
same,GI50,SF-295,38.5 µM (inactive)
same,GI50,HCT-15,34.6 µM
same,GI50,SK-MEL-28,> 100 µM (inactive)
same,GI50,786-0,38.7 µM (inactive)
same,GI50,SR,14.6 µM (inactive)
same,GI50,RXF 393,39.8 µM (inactive)
same,GI50,HCT-116,33.3 µM (inactive)
same,GI50,OVCAR-4,34.9 µM (inactive)
same,GI50,TK-10,32.1 µM (inactive)
same,GI50,A549,49 µM (inactive)
same,GI50,U-251,53.6 µM (inactive)
same,GI50,HL-60,1.85 µM (inactive)
same,GI50,HOP-92,23.7 µM (inactive)
